The values below come from patent US20150038694A1, “GLUCOSE D[…] TO ARSENIC FOR USE IN THE TREATMENT OF TUMOUR” (XENUS SRL, priority 2012, published 2015).

Entries after “also recorded” stand apart in the source; their conditions may differ.

Assay [1] concerns cellular line of human promyelokytic leukemia (HL60). The experiment in a line: MTT test (reduction of tetrazolium salts) on human promyelokytic leukemia cells. The assay is classed as cell-based. The conditions noted are these: increasing concentrations. How it is done:
(§1) The compound GD152.186 (PM 449,4) produced by means of above mentioned synthesis process, has been tested in a series of preclinical testing on cellular lines of human tumors, and in particular on a cellular line of human neuroblastoma (SK-N-BE) and on a cellular line of human promyelokytic leukemia (HL60).
Instead, the HL60 cells grow in suspension at a temperature of 37° C. and in 5% CO2, and the culture medium used is RPMI 1640 with 10% FBS (fetal bovine serum), 1% L-Glutamine and 1% Penicillin/Streptomycin antibiotics.
(§2) As a positive control, arsenic trioxide (As2O3, Sigma-Aldrich) has been used, as its activity has already been tested on cellular lines of human neuroblastoma and human promyelokytic leukemia.
(§3) The compound GD152.186 has been dissolved in sterile water so as to reach the final concentrations of 100-300-500-1000-2000 μM.
(§4) The test used for evaluating the persistence of tumor cells after the contact with said compound GD152.186 is the MTT test (reduction of tetrazolium salts).
Said test is based on the ability of the mitochondrial respiratory enzyme of the cells, usually called succinate tetrazolium reductase, of reducing a tetrazolium salt (3-[4,5-dimethylthiazol-2-yl]-2,5-diphenyltetrazolium bromide (MTT, Sigma Aldrich)) into an insoluble compound of blue colour, usually called formazan. […]

Assay [2] has as its system cellular line of human neuroblastoma (SK-N-BE). Briefly: MTT test (reduction of tetrazolium salts) on human neuroblastoma cells. The following applies: for reduction of the cell survival (formazan absorbance data): final concentrations 10-30-50-100 and 200 μM, forty-eight, seventy-two and ninety-six hours, absorbance at 570 nm; for morphologic changes visible with an optical microscope (loss of adherence to the plate, roundish shape with irregular outlines): treated cells. In kind it is cell-based.
Text: as §1
The culture medium used for growing the SK-N-BE cells is DMEM High Glucose (Dulbecco's Modified Eagle Medium) with 10% FBS (fetal bovine serum), 1% L-Glutamine and 1% Penicillin/Streptomycin antibiotics.
as §2, §3, §4
Said test is based on the ability of the mitochondrial respiratory enzyme of the cells, usually called succinate tetrazolium reductase, of reducing a tetrazolium salt (3-[4,5-dimethylthiazol-2-yl]-2,5-diphenyltetrazolium bromide (MTT, Sigma Aldrich)) into an insoluble compound of blue colour, usually called formazan.
Said reduction process occurs only in living cells and not in dead or damaged ones, consequently, the amount of formazan produced is directly proportional to the number of cells metabolically active in the tested sample.
96-well plates have been used for performing the tests, wherein in each well 5.000 (SK-N-BE) cells or 50.000 (HL60) cells have been sown, suspended in 180 μL of medium and then incubated at 37° C. and 5% CO2.
Forty-eight hours later, the cells have been treated with 20 μL of growing concentrations (in six replicates) of arsenic trioxide (100-300-500-1000 μM) and of GD152.186 compound (100-300-500-1000-2000 μM), so as to obtain inside each single well the final concentrations of 10-30-50-100 and 200 μM.
To one six-well column no compound is added but only 20 μL of sterile water, for following the natural growth of the cells.
The plates are incubated again for forty-eight, seventy-two and ninety-six hours, at the end thereof the test is performed.
To each single well 20 μL of MTT solution (5 mg·m-1 in sterile […]) have been added, giving an incubation time of three hours, functional to the formation of formazan.
Then, the supernatant is removed from each well and 200 μL of DMSO are added.
After about ten minutes the concentration level of formazan has been taken by means of a spectrophotometer set at a wave length of 570 nm.
Background: Tetrazolium assays rely on reduction of a dye to a coloured formazan, in cell work by metabolically active cells.

For arsenic trioxide [reference compound], the “reduction of the cell survival (formazan absorbance data), HL60 cells” value in assay [1] is reported as “reduction of the cell survival”. Besides, in assay [2], the “reduction of the cell survival (formazan absorbance data)” value is “reduction of the cell survival is strictly dependent on the arsenic trioxide dosage and on the time of exposure”; the “morphologic changes visible with an optical microscope (loss of adherence to the plate, roundish shape with irregular outlines)” value was “morphologic changes have been found”.

As for `OC[C@H]1O[C@H](CCNc2ccc([As]3SCCS3)cc2)[C@H](O)[C@@H](O)[C@@H]1O` [GD152.186], the “reduction of the cell survival (formazan absorbance data), HL60 cells” value in assay [1] is “reduction of the cell survival”. Further, in assay [2], the “reduction of the cell survival (formazan absorbance data)” value is “reduction of the cell survival is directly depending on the dosage of the GD152.186 compound and on the time of exposure; also recorded: most visible when the cells have come into contact with high concentrations (100-200 μM)”; the “morphologic changes visible with an optical microscope (loss of adherence to the plate, roundish shape with irregular outlines)” value was “morphologic changes have been surprisingly detected”.
